Results published in publication PMC11067372, “Evaluation of the antiplasmodial efficacy of synthetic 2,5-diphenyloxazole analogs of compounds naturally derived from Oxytropis lanata” (International Journal for Parasitology: Drugs and Drug …, 2024).
Read-outs that look alike come from different tables or passages of the source.

What was measured:
P. falciparum 3D7 [1] = assay: 72-h compound exposure assay with wash-unwashed procedure (up to 144 h); format: cell-based, Plasmodium falciparum; settings: for Parasitemia levels at 48 and 72 h compared to untreated controls: compound at IC80; for Cidal versus static effect: compound at IC80, up to 144 h, washed and unwashed groups
Procedure: In the 72-h compound exposure assay with the compound wash-unwashed procedure, parasites at the ring stage with 0.5% parasitemia and 2% hematocrit were employed. For this evaluation, Compounds 31 and 32 were used at concentrations equivalent to their respective IC80 values (Compound 31: 18.08 μM; hill slope 2.10, Compound 32: 11.74 μM; hill slope 2.02). These groups were considered the treated groups, while cultures with only complete medium served as untreated groups. The IC80 was used to allow observations of parasite morphology under incomplete inhibition, the potential emergence of abnormal morphologies, and the state of parasites following compound removal. This experimental setup was repeated three times for each concentration and time point. Thin blood smears were prepared from each treatment group at 1, 24, 48, or 72 h post incubation. In different culture sets, after 72 h of incubation, the medium was exchanged, and the compounds were subjected to three washes using fresh complete medium. Incubation was then continued either in the presence (unwashed group) or absence (washed group) of the test compounds for up to 144 h. Thin blood smears were consecutively prepared from each treatment group at 96, 120, and 144 h. The smears were visualized using a BZ-900 all-in-one microscope (Keyence BioRevo, Tokyo, Japan). Parasitemia levels were calculated by counting the number and determining the ratio of infected erythrocytes relative to the number of uninfected erythrocytes.

P. falciparum 3D7 [2] = assay: In vitro inhibition of P. falciparum 3D7 (SYBR Green I-based fluorescence assay); format: cell-based, Plasmodium falciparum; design: logIC50: unit not given here; settings: for IC80 / IC50: Plasmodium falciparum; for IC80: concentration used in the 72-h exposure assay; for logIC50: base-10 log-transformed IC50 against P. falciparum 3D7
Procedure: The cultures were maintained in an incubator under specific conditions: 37 °C under 5% CO2 and 5% O2.
The D-sorbitol method (CAS: 50-70-4, Wako, Osaka, Japan) was employed to synchronize parasites, resulting in the attainment of ≥90% ring-stage parasites. These synchronized parasites were then utilized for the experiments within a 2-h window. The assay was performed as follows. First, 50 μL of synchronized parasites with 0.5% parasitemia and 2% hematocrit were added to individual wells of a 96-well plate. Then, 50 μL of the test compounds was introduced to each well. […] Wells containing only test compounds and erythrocytes were included for background correction. […] After the designated incubation time, 100 μL of lysis buffer containing 0.02% (v/v) SYBR Green I was added to each well, the contents of the well were mixed by pipetting, and the plate was incubated in the dark at room temperature for 2 h. […] This assay was repeated four times at each concentration, and the resulting inhibitory values represent the average from three independent trials.
The IC50 or CC50 values were determined from three independent experiments by plotting the logarithmic concentration of the compound against the percent parasite inhibition or cell growth inhibition, respectively. Nonlinear regression analysis was conducted using GraphPad Prism 10 (GraphPad Software, Inc., La Jolla, CA, USA). Comparisons between groups were evaluated using either one-way or two-way ANOVA followed by Tukey's or Fisher's multiple comparisons tests. […] The meaning of each symbol is specified in the corresponding figure legend alongside the name of the employed test.

[3] = Table S2, P. falciparum 3D7, value used for SAR analysis, read-out: IC50
[4] = chloroquine-sensitive strain 3D7, 72 h incubation, average ± SD, three independent experiments, read-out: IC50 P. falciparum 3D7

In the case of `COc1cccc(-c2ncc(-c3ccccc3O)o2)c1OC` [Compound 31, 2-(2′,3′-dimethoxyphenyl)-5-(2″-hydroxyphenyl)oxazole], the “Parasitemia levels at 48 and 72 h compared to untreated controls” value (P. falciparum 3D7 [1]) is reported as “significantly lower parasitemia levels”, the “Cidal versus static effect” value (P. falciparum 3D7 [1]) is reported as “possible cidal effect” and the IC80 (P. falciparum 3D7 [2]; P. falciparum 3D7) is reported as 18.1 µM. For the same compound, the IC50 (P. falciparum 3D7 [2]; [3]) was 8.37 µM, the IC50 (P. falciparum 3D7 [2]; [4]) was 8.37 ± 1.28 µM and the logIC50 (P. falciparum 3D7 [2]; Table S2) was 0.9226.
With `COc1cccc(-c2ncc(-c3ccccc3OCc3ccccc3)o2)c1OC` [Compound 32, 2-(2′,3′-dimethoxyphenyl)-5-(2″-benzyloxyphenyl)oxazole] the “Parasitemia levels at 48 and 72 h compared to untreated controls” value (P. falciparum 3D7 [1]) was “significantly lower parasitemia levels”, the “Cidal versus static effect” value (P. falciparum 3D7 [1]) was “predominantly static effect” and the IC80 (P. falciparum 3D7 [2]; P. falciparum 3D7) was 11.7 µM. The IC50 (P. falciparum 3D7 [2]; [3]) was 6.25 µM, the IC50 (P. falciparum 3D7 [2]; [4]) was 6.25 ± 1.39 µM and the logIC50 (P. falciparum 3D7 [2]; Table S2) was 0.7961.
